Measurements as given in BindingDB's records for patent US11478460 (Chemocentryx, 2022).

Biological target: T1, C5a anaphylatoxin chemotactic receptor 1 (Homo sapiens, UniProt P21730)
T1 sequence (P21730 whole entry): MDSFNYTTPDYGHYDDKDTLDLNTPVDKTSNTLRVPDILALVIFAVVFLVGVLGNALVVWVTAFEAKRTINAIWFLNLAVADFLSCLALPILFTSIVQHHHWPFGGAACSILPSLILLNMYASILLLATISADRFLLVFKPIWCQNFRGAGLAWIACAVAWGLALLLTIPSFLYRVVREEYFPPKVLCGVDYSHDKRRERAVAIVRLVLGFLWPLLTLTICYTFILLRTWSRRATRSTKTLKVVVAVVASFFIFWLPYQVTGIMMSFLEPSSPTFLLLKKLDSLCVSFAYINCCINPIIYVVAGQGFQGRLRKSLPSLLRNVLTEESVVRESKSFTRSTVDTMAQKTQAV
Test: chemotaxis assay
Experimental: Optionally, compounds may be further assayed for their ability to inhibit chemotaxis in cells. Chemotaxis assays are performed using 5 μm pore polycarbonate, polyvinylpyrrolidone-coated filters in 96-well chemotaxis chambers (Neuroprobe; Gaithersburg, Md.) using chemotaxis buffer (Hank's balanced salt solution (HBSS) and 1% FBS). C5aR ligands (i.e., C5a, R&D Systems; Minneapolis, Minn.) are use to evaluate compound mediated inhibition of C5aR mediated migration. Other chemokines (i.e., SDF-1α; R&D Systems; Minneapolis, Minn.) are used as specificity controls. The lower chamber is loaded with 29 μl of chemokine (i.e., 0.03 nM C5a) and varying amounts of compound; the top chamber contains 100,000 U937 or neutrophil cells in 20 μl. The chambers are incubated 1.5 hours at 37° C., and the number of cells in the lower chamber quantified either by direct cell counts in five high powered fields per well or by the CyQuant assay (Molecular Probes), a fluorescent dye method that measures nucleic acid content and microscopic observation.

Question: Which IC50 does the source give for `Cc1cccc(OCC(C)C)c1-n1nc2c(c1-c1ccc(NC(N)=O)c(F)c1)CN(c1ncc(Cl)cc1F)CC2` [US11478460, Compound 1.250] here?
Answer: < 5 nM

Question: Which IC50 does the source give for `Cc1cccc(OCC(C)C)c1-n1nc2c(c1-c1ccc(NC(N)=O)cc1)CN(c1cccc(C(C)(C)C)n1)CC2` [US11478460, Compound 1.394] here?
Answer: < 5 nM
